Entries after “also recorded” stand apart in the source; their conditions may differ. Where two headings read alike, the source gives them in different places.
Experiments:
PBMCs = settings: three monkeys immunized with peptide cocktail; cited from earlier work
[1] = system: peptide-pulsed autologous EBV-transformed B cells (B-LCL); format: cell-based, human
[2] = system: anti-peptide antibodies in serum; format: binding, human; design: key to Anti-peptide antibody response: +, Positive (titer above control); −, Negative (titer below control)
[3] = system: PBMCs from normal and HIV-positive individuals; format: cell-based, human
[4] = system: PBMCs from control and HIV-1 infected chimpanzees; format: cell-based, chimpanzee
[5] = system: HIV envelope protein gp160; settings: cited from earlier work
[6] = system: anti-peptide antibodies in serum; format: binding, chimpanzee; design: key: +, Positive (Titer > 1:100); −, Negative (Titer < 1:100)

VYYGVPVWKEA [Peptide 104]
proliferative response of PBMCs (PBMCs): good response | % Specific lysis at various E:T ratios 12.5:1 ([1]; E:T 12.5:1, PBMCs from patient restimulated 7 days in phytohemagglutinin medium, peptide-pulsed autologous B-LCL): 1.5% | % Specific lysis at various E:T ratios 25:1 ([1]; E:T 25:1, PBMCs from patient restimulated 7 days in phytohemagglutinin medium, peptide-pulsed autologous B-LCL): 3.7% | % Specific lysis at various E:T ratios 50:1 ([1]; E:T 50:1, PBMCs from patient restimulated 7 days in phytohemagglutinin medium, peptide-pulsed autologous B-LCL): 9.3% | % Specific lysis at various E:T ratios 100:1 ([1]; E:T 100:1, PBMCs from patient restimulated 7 days in phytohemagglutinin medium, peptide-pulsed autologous B-LCL): 12.2% | CTL activity against peptide-pulsed autologous B-LCLs ([1]; PBMCs from LTNP HD restimulated 7 days with PHA): significant CTL activity | specific lysis of peptide-pulsed target cells ([1]; […], compared with restimulated PBMCs): also observed | number of HIV+ individuals with positive antibody titers (<1:1280) [2]: three | Anti-peptide antibody response ([2]; HIV-positive patient MSf): − | Anti-peptide antibody response ([2]; HIV-positive patient MSm): − | Anti-peptide antibody response ([2]; HIV-positive patient eight): − | Anti-peptide antibody response ([2]; HIV-positive patient eleven): − | Anti-peptide antibody response ([2]; HIV-positive patient fifteen): − | Anti-peptide antibody response ([2]; HIV-positive patient five): − | Anti-peptide antibody response ([2]; HIV-positive patient four): + | Anti-peptide antibody response ([2]; HIV-positive patient fourteen): − | Anti-peptide antibody response ([2]; HIV-positive patient nine): − | Anti-peptide antibody response ([2]; HIV-positive patient one): − | Anti-peptide antibody response ([2]; HIV-positive patient seven): − | Anti-peptide antibody response ([2]; HIV-positive patient six): + | Anti-peptide antibody response ([2]; HIV-positive patient ten): − | Anti-peptide antibody response ([2]; HIV-positive patient thirteen): − | Anti-peptide antibody response ([2]; HIV-positive patient three): − | Anti-peptide antibody response ([2]; HIV-positive patient twelve): − | Anti-peptide antibody response ([2]; HIV-positive patient two): + | Anti-peptide antibody response ([2]; Normal-1 (HIV-seronegative)): − | Anti-peptide antibody response ([2]; Normal-2 (HIV-seronegative)): − | number of HIV+ individuals with positive proliferative responses ([3]; 17 HIV+ individuals tested): eight of the 17 | T-cell proliferative response ([3]; HIV-positive patient MSf): − (−, Negative (SI < 2.0)) | T-cell proliferative response ([3]; HIV-positive patient MSm): − (−, Negative (SI < 2.0)) | T-cell proliferative response ([3]; HIV-positive patient eight): − (−, Negative (SI < 2.0)) | T-cell proliferative response ([3]; HIV-positive patient eleven): + (+, Positive (Stimulation Index [SI] > 2.0)) | T-cell proliferative response ([3]; HIV-positive patient fifteen): + (+, Positive (Stimulation Index [SI] > 2.0)) | T-cell proliferative response ([3]; HIV-positive patient five): − (−, Negative (SI < 2.0)) | T-cell proliferative response ([3]; HIV-positive patient four): − (−, Negative (SI < 2.0)) | T-cell proliferative response ([3]; HIV-positive patient fourteen): − (−, Negative (SI < 2.0)) | T-cell proliferative response ([3]; HIV-positive patient nine): + (+, Positive (Stimulation Index [SI] > 2.0)) | T-cell proliferative response ([3]; HIV-positive patient one): − (−, Negative (SI < 2.0)) | T-cell proliferative response ([3]; HIV-positive patient seven): − (−, Negative (SI < 2.0)) | T-cell proliferative response ([3]; HIV-positive patient six): + (+, Positive (Stimulation Index [SI] > 2.0)) | T-cell proliferative response ([3]; HIV-positive patient ten): − (−, Negative (SI < 2.0)) | T-cell proliferative response ([3]; HIV-positive patient thirteen): + (+, Positive (Stimulation Index [SI] > 2.0)) | T-cell proliferative response ([3]; HIV-positive patient three): + (+, Positive (Stimulation Index [SI] > 2.0)) | T-cell proliferative response ([3]; HIV-positive patient twelve): + (+, Positive (Stimulation Index [SI] > 2.0)) | T-cell proliferative response ([3]; HIV-positive patient two): + (+, Positive (Stimulation Index [SI] > 2.0)) | T-cell proliferative response ([3]; Normal-1 (HIV-seronegative)): − (−, Negative (SI < 2.0)) | T-cell proliferative response ([3]; Normal-2 (HIV-seronegative)): − (−, Negative (SI < 2.0)) | SI values ([3]; in six of the eight responding HIV+ individuals): above 4.1 | T-cell proliferative response ([4]; chimpanzee 40, control normal): − (−, Negative (SI < 2.0)) | T-cell proliferative response ([4]; chimpanzee 62, HIV-infected): + (+, Positive (Stimulation Index [SI] > 2.0)) | T-cell proliferative response ([4]; chimpanzee 69, HIV-infected): + (+, Positive (Stimulation Index [SI] > 2.0)) | T-cell proliferative response ([4]; chimpanzee 73, control normal): − (−, Negative (SI < 2.0)) | T-cell proliferative response ([4]; chimpanzee 80, HIV-infected): + (+, Positive (Stimulation Index [SI] > 2.0)) | T-cell proliferative response ([4]; chimpanzee 99, HIV-infected): + (+, Positive (Stimulation Index [SI] > 2.0)) | T-cell proliferative response ([4]; chimpanzee 100, HIV-infected): − (−, Negative (SI < 2.0)) | T-cell proliferative response ([4]; chimpanzee 139, HIV-infected): + (+, Positive (Stimulation Index [SI] > 2.0)) | T-cell proliferative response ([4]; chimpanzee 175, HIV-infected): + (+, Positive (Stimulation Index [SI] > 2.0)) | T-cell proliferative response ([4]; chimpanzee 247, HIV-infected): − (−, Negative (SI < 2.0)) | T-cell proliferative response ([4]; chimpanzee 310, HIV-infected): + (+, Positive (Stimulation Index [SI] > 2.0)) | SI values ([4]; in three HIV-infected chimpanzees): above 5.1 | number of HIV-infected chimpanzees with positive proliferative responses (SI>2.0) ([4]; nine HIV-infected chimpanzees tested): seven of the nine | T-cell proliferative response to immunizing peptide and HIV Env protein gp160 ([5]; immunized mice): induced a T-cell response against both the immunizing peptide and the HIV Env protein; also recorded: induced proliferative responses to both the immunizing peptide | antibodies recognizing recombinant gp160 ([5]; immunized mice): did not produce antibodies that could recognize recombinant gp160 | T-cell proliferation responses ([5]; two F1 hybrid mouse strains (B6C3 F1 and A.SW×Balb/c F1)): relatively good T-cell proliferation responses | Anti-peptide antibody response [6]: − | Anti-peptide antibody response ([6]; chimpanzee 40, control normal): − | Anti-peptide antibody response ([6]; chimpanzee 73, control normal): −

Source: patent US7306804B2 (priority 1998, dated 2007)
